What was measured:
[1] = target: T1, 5-Lipoxygenase (Rattus norvegicus, UniProt P12527); experiment: 5-Lipoxygenase inhibiting action: 5-HETE production in rat basophilic leukemia (RBL-1) cells (HPLC); type: cell-based; conditions: read-out: Effect of Inhibiting 5-Lipoxygenase, % Inhibition (IE); for inhibition at 10 µM: 10^-5 M; for inhibition at 1 µM: 10^-6 M; for inhibition at 0.1 µM: 10^-7 M; for inhibition at 0.01 µM: 10^-8 M
T1 construct: endogenous in cells; host or cells: RBL-1 (rat basophilic leukemia) cells
T1 sequence (P12527 1-673): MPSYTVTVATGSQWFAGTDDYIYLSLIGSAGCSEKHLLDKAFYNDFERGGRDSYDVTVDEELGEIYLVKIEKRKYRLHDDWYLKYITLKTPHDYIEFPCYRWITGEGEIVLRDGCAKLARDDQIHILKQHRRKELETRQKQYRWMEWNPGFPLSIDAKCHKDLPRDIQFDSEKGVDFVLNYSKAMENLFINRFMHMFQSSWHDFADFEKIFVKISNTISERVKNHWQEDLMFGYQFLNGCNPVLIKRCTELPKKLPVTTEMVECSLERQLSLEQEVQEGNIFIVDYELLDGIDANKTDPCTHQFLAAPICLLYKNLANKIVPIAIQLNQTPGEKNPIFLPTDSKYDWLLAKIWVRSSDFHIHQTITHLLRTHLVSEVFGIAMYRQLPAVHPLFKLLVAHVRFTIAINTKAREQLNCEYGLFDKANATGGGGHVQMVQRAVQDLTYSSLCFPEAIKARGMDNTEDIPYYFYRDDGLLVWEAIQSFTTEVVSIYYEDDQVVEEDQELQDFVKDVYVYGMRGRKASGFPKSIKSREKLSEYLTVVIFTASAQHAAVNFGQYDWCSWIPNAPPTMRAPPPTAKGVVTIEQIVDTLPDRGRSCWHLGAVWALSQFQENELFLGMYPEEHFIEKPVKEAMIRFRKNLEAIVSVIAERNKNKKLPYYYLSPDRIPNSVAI
Procedure: In 0.5 ml of MCM (mast cell medium) was suspended 10^7 of rat basophilic leukemia (RBL-1) cells. To this suspension was added the test solution previously prepared [consisting of 0.5 ml of MCM, 50 μg of arachidonic acid, 10 μg of calcium ionophore A-23187 and the test compound (final concentrations 10 μm, 1 μm, 0.1 μm and 0.01 μm)], and the reaction was allowed to proceed at 37° C. for 20 minutes. To the reaction mixture was added 4 ml of ethanol, which was shaken sufficiently, followed by leaving the resultant mixture standing for 10 minutes at room temperatures. The resultant mixture was subjected to a centrifuge (2000 rpm) for 10 minutes, then the supernatant was separated. Thus-separated supernatant was concentrated to dryness under reduced pressure. To the concentrate was added 0.5 ml of a 60% aqueous methanol. A 100μl Portion of this solution was taken and subjected to high performance liquid chromatography to perform quantitative determination of 5-HETE (5-hydroxyeicosatetraenoic acid). UV absorption of 5-HETE at 237 nm was measured with a UV absorption monitor. The inhibitory effect (IE) of 5-HETE is expressed by (1-b/a)×100. In this formula, a means the height of the peak or the area of the peak in the case of presence of no compound (I), while b means the height of the peak or the area of the peak in the case of presence of the compound (I).

[2] = target: T2, 12-Lipoxygenase (Rattus norvegicus, UniProt F1LQ70); experiment: 12-Lipoxygenase inhibitory action: 12-HETE production in Wistar rat platelets (HPLC); type: cell-based; conditions: read-out: 12-Lipoxygenase Inhibitory Action, % Inhibition (IE); for inhibition at 100 µM: 10^-4 M; for inhibition at 10 µM: 10^-5 M; for inhibition at 1 µM: 10^-6 M; for inhibition at 0.1 µM: 10^-7 M
T2 construct: from tissue; host or cells: Wistar rat platelets (PRP mixed with PPP, from citrated aortic blood)
T2 sequence (F1LQ70 1-663): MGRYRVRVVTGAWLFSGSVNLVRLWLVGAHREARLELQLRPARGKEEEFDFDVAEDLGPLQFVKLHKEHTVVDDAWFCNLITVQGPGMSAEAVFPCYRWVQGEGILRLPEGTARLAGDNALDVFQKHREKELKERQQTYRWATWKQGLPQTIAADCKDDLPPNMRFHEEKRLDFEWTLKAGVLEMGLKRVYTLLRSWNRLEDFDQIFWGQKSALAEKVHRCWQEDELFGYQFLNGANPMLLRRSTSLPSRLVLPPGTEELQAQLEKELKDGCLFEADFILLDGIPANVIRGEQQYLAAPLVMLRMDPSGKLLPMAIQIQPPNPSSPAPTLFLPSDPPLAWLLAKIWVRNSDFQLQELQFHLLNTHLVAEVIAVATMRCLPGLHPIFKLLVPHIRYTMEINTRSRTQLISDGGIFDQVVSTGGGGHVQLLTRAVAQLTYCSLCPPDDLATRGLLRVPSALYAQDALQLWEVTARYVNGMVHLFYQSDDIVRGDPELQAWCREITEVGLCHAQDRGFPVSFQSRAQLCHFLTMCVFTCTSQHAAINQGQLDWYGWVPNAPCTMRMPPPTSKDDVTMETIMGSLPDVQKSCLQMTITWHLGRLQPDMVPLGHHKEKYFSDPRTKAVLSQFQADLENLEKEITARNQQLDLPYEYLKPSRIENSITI
Procedure: Through the descending aorta of a Wistar rat, 10 ml of blood was collected, under anesthesia, together with citric acid of a volume corresponding to 10%. PRP and PPP were respectively prepared, then they were mixed to make the number of platelets to be 10^9 /ml. To 2.5 μl each of the test solutions prepared in advance (final concentrations of the test compounds : 100 μm, 10 μm, 1 μm and 0.1 μm) was added 0.225 ml of the platelet solution. The respective solutions were kept at 37° C. for 5 minutes, to which was added 25 μl each of arachidonic acid solution (50 μg/ml) , then the respective mixtures were shaken immediately. The reaction was allowed to proceed at 37° C. for 15 minutes, and there was added ethanol (1 ml) to stop the reaction. The reaction mixture was subjected to a centrifuge (2000 rpm) for 5 minutes. One ml of the supernatant was taken, which was mixed with 1 ml of water. 100 μl of this mixture solution was subjected to high performance liquid chromatography to quantitatively determine 12-HETE. The detection was conducted at 240 nm. The calculation of the inhibition rate was conducted in a manner as in the case of 5-HETE.

SMILES | inhibition at 10 µM [1] [%] | inhibition at 1 µM [1] [%] | inhibition at 0.1 µM [1] [%] | inhibition at 0.01 µM [1] [%] | inhibition at 100 µM [2] [%] | inhibition at 10 µM [2] [%] | inhibition at 1 µM [2] [%] | inhibition at 0.1 µM [2] [%]
Cc1c(C)c2c(c(C)c1O)CC(C)(CC#N)O2 (stereo not drawn) [Compound 5, 5-hydroxy-2-cyanomethyl-2,4,6,7-tetramethyl-2,3-dihydrobenzofuran] | 100 | 100 | 57 | 0 | 97 | 78 | 14 | 
Cc1c(C)c2c(c(C)c1O)CC(C)(CBr)O2 (stereo not drawn) [Compound 6] | 100 | 100 | 52 | 4 | 98 | 88 | 16 | 2
Cc1c(C)c2c(c(C)c1O)CC(C)(C=Cc1ccccc1)O2 (stereo not drawn) [Compound 10] | 100 | 99 | 98 | 12 | 96 | 92 | 52 | 45
Cc1c(C)c2c(c(C)c1O)CC(C)(CCc1ccccc1)O2 (stereo not drawn) [Compound 12] | 100 | 100 | 90 | 46 | 95 | 82 | 11 | 
Cc1c(C)c2c(c(C)c1O)CC(C)(/C=C\Cc1ccccc1)O2 (stereo not drawn) [Compound 15] |  |  |  |  | 100 | 100 | 99 | 25
Cc1c(C)c2c(c(C)c1O)CC(C)(/C=C/Cc1ccccc1)O2 (stereo not drawn) [Compound 17] |  |  |  |  | 100 | 99 | 98 | 22
Cc1c(C)c2c(c(C)c1O)CC(C)(/C=C/c1ccccc1)O2 (stereo not drawn) [Compound 18] |  |  |  |  | 100 | 100 | 89 | 18
Cc1c(C)c2c(c(C)c1O)CC(C)(CCCc1ccccc1)O2 (stereo not drawn) [Compound 20] |  |  |  |  | 100 | 99 | 97 | 9
Cc1c(C)c2c(c(C)c1O)CC(C)(/C=C\CCc1ccccc1)O2 (stereo not drawn) [Compound 21] |  |  |  |  | 100 | 100 | 98 | 21
Cc1c(C)c2c(c(C)c1O)CC(C)(CCCCc1ccccc1)O2 (stereo not drawn) [Compound 23] |  |  |  |  | 100 | 100 | 92 | 19
COc1ccc(/C=C\C2(C)Cc3c(C)c(O)c(C)c(C)c3O2)cc1 (stereo not drawn) [Compound 24] |  |  |  |  | 100 | 99 | 98 | 13
COc1ccc(CCC2(C)Cc3c(C)c(O)c(C)c(C)c3O2)cc1 (stereo not drawn) [Compound 26] |  |  |  |  | 100 | 99 | 28 | 
COc1cccc(/C=C\C2(C)Cc3c(C)c(O)c(C)c(C)c3O2)c1 (stereo not drawn) [Compound 27] |  |  |  |  | 100 | 100 | 99 | 19
COc1cccc(CCC2(C)Cc3c(C)c(O)c(C)c(C)c3O2)c1 (stereo not drawn) [Compound 29] |  |  |  |  | 100 | 99 | 58 | 7
Cc1c(C)c2c(c(C)c1O)CC(C)(/C=C\c1ccc(F)cc1)O2 (stereo not drawn) [Compound 30] |  |  |  |  | 100 | 100 | 98 | 21
Cc1c(C)c2c(c(C)c1O)CC(C)(CCc1ccc(F)cc1)O2 (stereo not drawn) [Compound 32] |  |  |  |  | 99 | 99 | 45 | 2

Second part, the molecule after the results:

inhibition at 10 µM [1] [%] | inhibition at 1 µM [1] [%] | inhibition at 0.1 µM [1] [%] | inhibition at 0.01 µM [1] [%] | inhibition at 100 µM [2] [%] | inhibition at 10 µM [2] [%] | inhibition at 1 µM [2] [%] | inhibition at 0.1 µM [2] [%] | SMILES
 |  |  |  | 100 | 100 | 28 | 2 | Cc1ccc(/C=C\C2(C)Cc3c(C)c(O)c(C)c(C)c3O2)cc1 (stereo not drawn) [Compound 33]
 |  |  |  | 99 | 99 | 49 | 8 | Cc1ccc(CCC2(C)Cc3c(C)c(O)c(C)c(C)c3O2)cc1 (stereo not drawn) [Compound 35]
 |  |  |  | 100 | 100 | 100 | 97 | CCC/C=C\C1(C)Cc2c(C)c(O)c(C)c(C)c2O1 (stereo not drawn) [Compound 36]
 |  |  |  | 100 | 100 | 31 | 2 | CCCCCC1(C)Cc2c(C)c(O)c(C)c(C)c2O1 (stereo not drawn) [Compound 37]
 |  |  |  | 99 | 99 | 90 | 3 | CCCCCCC/C=C\C1(C)Cc2c(C)c(O)c(C)c(C)c2O1 (stereo not drawn) [Compound 38]
 |  |  |  | 100 | 100 | 32 |  | CCCCCCCCCC1(C)Cc2c(C)c(O)c(C)c(C)c2O1 (stereo not drawn) [Compound 39]
 |  |  |  | 99 | 96 | 48 | 6 | CCCCCCCCCCC/C=C\C1(C)Cc2c(C)c(O)c(C)c(C)c2O1 (stereo not drawn) [Compound 40]
 |  |  |  | 99 | 74 | 20 | 9 | CCCCCCCCCCCCCC1(C)Cc2c(C)c(O)c(C)c(C)c2O1 (stereo not drawn) [Compound 41]

From patent US4978761A, “5-hydroxy-2-substituted-2,4,6,7-tetramethyl-2,3-dihydrobenzofurans” (Takeda Chemical Industries, Ltd., priority 1988, dated 1990)
